Measured values from patent US20080009538A1, “Methods and compositions for the treatment of urinary incontinence” (priority 2005, published 2008).
Structures can show the parent of a compound that is named as a salt. Where two headings read alike, the source gives them in different places.

Key:
[1] = molecular target: T1, norepinephrine transporter protein (Homo sapiens, UniProt P23975); test: [3H]norepinephrine uptake in HEK 293 cells expressing the transporter; assay type: cell-based; settings: recombinant human norepinephrine transporter, 20 nM [3H]norepinephrine, read-out: inhibition of [3H]Norepinephrine uptake (IC50)
T1 construct: expressed in transfected cells; host or cells: HEK 293 cells
T1 sequence (P23975 whole entry): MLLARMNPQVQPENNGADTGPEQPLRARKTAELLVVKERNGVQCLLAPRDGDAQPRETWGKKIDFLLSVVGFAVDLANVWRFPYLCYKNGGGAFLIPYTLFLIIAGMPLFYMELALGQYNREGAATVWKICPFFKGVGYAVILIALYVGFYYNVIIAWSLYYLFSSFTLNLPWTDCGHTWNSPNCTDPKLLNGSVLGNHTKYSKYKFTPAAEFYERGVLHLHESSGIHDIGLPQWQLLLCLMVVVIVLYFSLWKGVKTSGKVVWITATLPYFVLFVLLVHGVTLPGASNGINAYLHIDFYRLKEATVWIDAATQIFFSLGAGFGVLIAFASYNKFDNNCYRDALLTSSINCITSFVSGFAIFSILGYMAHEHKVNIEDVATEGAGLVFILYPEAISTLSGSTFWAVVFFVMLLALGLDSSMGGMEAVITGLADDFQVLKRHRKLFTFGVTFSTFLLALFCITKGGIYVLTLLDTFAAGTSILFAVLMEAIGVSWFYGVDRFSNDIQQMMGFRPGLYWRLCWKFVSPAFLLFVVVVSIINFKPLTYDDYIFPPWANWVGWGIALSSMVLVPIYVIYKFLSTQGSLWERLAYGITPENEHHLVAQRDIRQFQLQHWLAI
Protocol: (§1) The effects bicifadine on [^3H]norepinephrine and [^3H]serotonin uptake were measured in HEK 293 cells expressing the recombinant human forms of the norepinephrine and serotonin transporter proteins, respectively using a modification of the techniques described by Eschleman, et al., (1999). Cells were grown on 150-mm-diameter tissue culture dishes until confluent. Medium was removed from the plates and the cells were washed twice with Ca^2+, Mg^2+-free PBS. Fresh Ca^2+, Mg^2+-free PBS (2.5 ml) was then added to each plate and the plates were placed in a 25° C. water bath for 5 min. The cells were then gently scraped from the plates, and cell clusters were separated by trituration with a pipette for 5 to 10 aspirations and ejections. Aliquots (50 μl) of the suspended cells were then added to assay tubes (in triplicate) containing various concentrations of bicifadine and Krebs-HEPES assay buffer in a final assay volume of 0.5 ml. Following a 10-min pre-incubation in a 25° C. water bath, [^3H]norepinephrine or serotonin (20 nM final concentration) was added, and the assay was incubated for 10 min. The reaction was terminated by filtration through Wallac filtermat A filters presoaked in 0.05% polyethylenimine, using a Tomtec cell harvester. Scintillation fluid was then added to each filtered spot, and radioactivity remaining on the filters was determined by scintillation counting. […]

[2] = molecular target: α2 adrenergic receptor; test: α2 adrenergic receptor [3H]RX 821002 binding, rat cerebral cortex preparation
Protocol: This assay was conducted by incubating the rat cortex preparation with a 0.5 nM concentration of [^3H]RX 821002 for 30 min at 22° C. in the presence of either 0.1, 0.3, 1, 3, or 10 μM concentrations bicifadine HCl. Unlabelled (−)epinephrine (100 μM) was used to determine nonspecific binding. The assay was terminated by vacuum filtration, and the amount of radiolabeled receptor retained by the filter measured by scintillation counting. […] Recombinant human 5-HT2A receptors expressed in CHO cells were incubated with bicifadine HCl (0.1, 1 or 10 μM) and [^3H]LSD (1.2 nM) at 37° C. for 30 min (Bonhaus 1995). Serotonin (10 μM) was used to determine nonspecific binding.
(§2) Ki=inhibitory constant defined as IC50/L+KD; IC50=concentration of bicifadine HCl that inhibits 50% of the maximal response; L=concentration of radioligand added; KD, dissociation constant of the radioligand at equilibrium.

[3] = system: Female rats; test: Neurogenic overactive bladder in spinal cord transected rats; assay type: in vivo, rat; settings: versus no drug or vehicle
Protocol: The spinal cord is transected and the intervening space filled with Gelfoam. The overlying muscle layers and skin are sequentially closed with suture, and the animals are treated with antibiotic (100 mg/kg ampicillin s.c.) Residual urine is expressed prior to returning the animals to their cages, and thereafter 3 times daily until terminal experimentation four weeks later. On the day of the experiment, the animals are anesthetized with isofluorane (4%) and a jugular catheter is inserted for access to the systemic circulation and tunneled subcutaneously to exit through the midscapular region. Via a midline abdominal incision, a catheter with a fire-flared tip is inserted into the dome of the bladder through a small cystotomy and secured by ligation for bladder filling and pressure recording. Electrodes are inserted percutaneously into the external urethral sphincter for electromyography readings. […]
Following a 60-90 minute control period of normal saline infusion (0.100-0.150 ml/min) to collect baseline continuous open cystometric data, the pump is turned off, the bladder is emptied, the pump turned back on, and bladder capacity is estimated by a filling cystometrogram. […] Following the third administration of vehicle control, bladder capacity is again measured through a cystometrogram. […] Bladder capacity is measured as described above at 20 minutes following each subsequent drug treatment.

[4] = Blood pressure in human subjects; assay type: in vivo
[5] = molecular target: T2, 5-HT2A receptor (Homo sapiens, UniProt P28223); test: 5-HT2A receptor [3H]LSD binding screen, recombinant receptors in CHO cells; settings: [3H]LSD 1.2 nM, recombinant human 5-HT2A in CHO cells, 37° C., 30 min, read-out: inhibition of radioligand binding
T2 construct: expressed in transfected cells; host or cells: CHO cells
T2 sequence (P28223 whole entry): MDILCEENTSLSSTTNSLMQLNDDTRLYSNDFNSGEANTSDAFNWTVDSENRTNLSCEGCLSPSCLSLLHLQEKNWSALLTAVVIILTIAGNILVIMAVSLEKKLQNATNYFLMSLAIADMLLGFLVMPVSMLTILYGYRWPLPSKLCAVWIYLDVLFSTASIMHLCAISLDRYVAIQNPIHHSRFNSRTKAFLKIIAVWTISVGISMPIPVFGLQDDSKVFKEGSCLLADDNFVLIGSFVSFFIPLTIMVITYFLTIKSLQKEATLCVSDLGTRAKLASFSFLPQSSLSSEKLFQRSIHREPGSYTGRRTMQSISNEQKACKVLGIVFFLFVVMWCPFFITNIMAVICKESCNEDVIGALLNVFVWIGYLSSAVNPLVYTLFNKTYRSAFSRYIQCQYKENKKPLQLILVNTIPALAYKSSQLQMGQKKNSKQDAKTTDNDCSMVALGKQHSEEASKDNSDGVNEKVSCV

[6] = system: Female rats; test: Dilute acetic acid model in rats (filling cystometry); assay type: in vivo, rat; settings: intraduodenal, 0.25% acetic acid continuous irritation
Excerpt: Additional animal models for evaluating efficacy of bicifadine as an anti-incontinence drug include a widely accepted rat model predictive of anti-incontinence drug activity in humans. Female rats (250-275 g BW, n=8) are anesthetized with urethane (1.2 g/kg) and a saline-filled catheter is inserted into the proximal duodenum for intraduodenal drug administration. A flared-tipped catheter is inserted into the bladder dome, via a midline lower abdominal incision, for bladder filling and pressure recording, and secured by ligation. Electromyography elctrodes are inserted into the external urethral sphincter percutaneously.
In the control, saline is continuously infused at a rate of about 0.055 ml/min via the bladder filling catheter for about 60 minutes to obtain a baseline of lower urinary tract activity. […] Bladder capacity (ml) is calculated as the flow rate of the bladder filling solution […] multiplied by the elapsed time between commencement of bladder filling and occurrence of bladder contraction (min).
Following the control period, a 0.25% acetic acid solution in saline is infused into the bladder to induce bladder irritation. […] Following injection of the third vehicle control, bladder capacity is again measured using acetic acid to fill the bladder. […]

[7] = molecular target: T3, serotonin transporter protein (Homo sapiens, UniProt P31645); test: [3H]serotonin uptake in HEK 293 cells expressing the transporter; assay type: cell-based; settings: recombinant human serotonin transporter, 20 nM [3H]serotonin, read-out: inhibition of [3H]Serotonin uptake (IC50)
T3 construct: expressed in transfected cells; host or cells: HEK 293 cells
T3 sequence (P31645 whole entry): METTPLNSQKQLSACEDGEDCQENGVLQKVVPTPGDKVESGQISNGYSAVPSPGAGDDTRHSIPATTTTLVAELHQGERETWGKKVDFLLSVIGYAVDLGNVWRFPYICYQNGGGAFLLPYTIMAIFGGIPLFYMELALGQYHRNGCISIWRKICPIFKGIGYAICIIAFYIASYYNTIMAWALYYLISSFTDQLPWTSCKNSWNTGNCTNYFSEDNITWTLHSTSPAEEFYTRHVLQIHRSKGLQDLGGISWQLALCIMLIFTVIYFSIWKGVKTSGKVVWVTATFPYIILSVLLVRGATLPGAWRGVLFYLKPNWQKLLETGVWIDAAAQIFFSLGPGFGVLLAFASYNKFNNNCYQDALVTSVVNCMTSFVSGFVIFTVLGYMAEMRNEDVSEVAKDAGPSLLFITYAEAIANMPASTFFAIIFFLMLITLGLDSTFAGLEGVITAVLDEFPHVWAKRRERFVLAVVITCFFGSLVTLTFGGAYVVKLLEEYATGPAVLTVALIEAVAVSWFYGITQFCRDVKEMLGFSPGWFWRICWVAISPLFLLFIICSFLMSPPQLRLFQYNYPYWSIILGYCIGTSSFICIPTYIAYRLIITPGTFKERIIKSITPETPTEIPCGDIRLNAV
Protocol: as §1

[8] = molecular target: α1 adrenergic receptor; test: α1 adrenergic receptor [3H]prazosin binding, rat cerebral cortex preparation; settings: [3H]prazosin 0.25 nM, 60 min at 22° C., read-out: Inhibition of radioligand binding, affinity (Ki)
Protocol: At the end of 60 min, the assay was terminated by vacuum filtration and the amount of radioactivity deposited on the filter measured by scintillation counting.
as §2

[9] = system: Adult female guinea pigs; test: Urethral function in guinea pigs (external urethral sphincter EMG); assay type: in vivo, guinea pig; settings: intravenous, normal bladder filling, versus no drug or vehicle
Excerpt: Yet another animal model for evaluating efficacy of bicifadine as an anti-incontinence drug is a widely accepted guinea pig model, also predictive of anti-incontinence drug activity in humans. Adult female guinea pigs, weighing 620-707 g, are initially anesthetized with halothane and maintained with urethane. A cannula is inserted into the trachea, a jugular vein and a carotid artery for respiratory ventilation, injection of the test compound and monitoring of the blood pressure, respectively. A midline laporatomy is performed to expose the urinary bladder and a cystometry tube is inserted through a small incision in the dome of the bladder. The abdominal wound is closed tightly around the externalized cystometry tube, which is connected to an infusion pump and pressure transducer, for filling the bladder and recording intravesical pressure. Electromyographic electrodes are inserted into the striated muscles of the external urethral sphincter.
The bladder is filled at a rate of 150 μl/min^−1 with saline until initiation of a micturition reflex. […]
The bladder is then filed to 75% of the threshold volume with saline and weights are positioned on the ventral surface of the abdomen of the animal just rostral to the position of the bladder. […] Electromyographic activity and intravesical pressure are recorded while weights are applied to the abdomen. […]

[10] = system: Adult cats; test: Dilute acetic acid bladder model in anesthetized cats (cystometrogram); assay type: in vivo, cat; settings: i.v., during 0.5% acetic acid infusion
Protocol: Adult cats (male and female) were anesthetized with α-chloralose (50-75 mg/kg i.v.) A cannula was inserted into the trachea to maintain a clear airway. One catheter was inserted into the carotid artery to measure systemic blood pressure, and another was placed into the radial vein for injecting bicifadine hydrochloride. All doses of bicifadine hydrochloride were based on body weight.
Electromyography electrodes were placed in the periurethral striated muscle. A catheter was inserted through the dome of the bladder and was used to infuse either saline for the control or dilute (0.5%) acetic acid into the test cats. The catheter was also used to record bladder pressure during each voiding cystometrogram. After bladder capacity was established using the saline infusion, cysometrograms were taken after an infusion of dilute acetic acid and changes in bladder capacity were recorded. […] Fluid release during micturition was measured by collecting the fluid in a cylinder attached to a force transducer.
On reaching micturition threshold, acetic acid infusion of the bladder was continued, resulting in rhythmic micturition contractions throughout the infusion period. During this time of rhythmic bladder activity, either vehicle as the control or bicifadine hydrochloride was administered. Five minutes after each administration of bicifadine hydrochloride, the bladder was emptied and another cystometrogram was performed. This procedure was repeated with increasing doses of bicifadine hydrochloride.
Under control conditions, rapid increases in intravessicular pressure were recorded after infusion of 5.3±0.6 ml saline into an initially empty bladder. Bladder capacity was reached after infusion of approximately 10.5 ml of saline. When acetic acid was infused, bladder capacity was reduced by more than half. […] Normal time to contraction following instillation of saline into the bladder is approximately 1286 seconds.

Row | SMILES | IC50 [1] | Ki ([2]; read-out: Inhibition of radioligand binding, affinity (Ki), [3H]RX 821002 0.5 nM, 30 min at 22° C., hydrochloride) | Ki ([2]; read-out: Inhibition of radioligand binding, affinity (Ki), [3H]RX 821002 0.5 nM, 30 min at 22° C., listed as bicifadine, hydrochloride) | bladder capacity [3] | alterations in blood pressure [4] | inhibition at 10 µM [5] | bladder capacity [6] | IC50 [7] | Ki [8] | electromyographic activity of external urethral sphincter [9] | bladder activity [10] | bladder capacity [10] | time to contraction (latency to bladder contraction) [10]
1 | Cc1ccc([C@]23CNC[C@H]2C3)cc1 (racemic) [Bicifadine HCl, (±)-1-(4-methylphenyl)-3-azabicyclo[3.1.0]hexane hydrochloride] | 54.7 nM | 610 nM | 600 nM | increase in bladder capacity | did not cause significant alterations in blood pressure | 82% | increase in bladder capacity | 117 nM | 1000 nM | increase in electromyographic activity | pronounced inhibition of bladder activity | increased bladder capacity to near control conditions | increased the time to contraction
2 | Cc1ccc(C23CNCC2C3)cc1.Cl (single isomer, unassigned; (+)) [(+)-bicifadine HCl, (+)-1-(p-Tolyl)-3-azabicyclo[3.1.0]hexane hydrochloride] | – | – | – | – | – | – | – | – | – | – | pronounced inhibition of bladder activity | increased bladder capacity to near control conditions | increased the time to contraction
